Series [1] is described as follows: Peptide solubility in water.
A further series addresses T1, MPO heme ring (Homo sapiens, UniProt P05164).
T1 construct: purchased Lee BioSolutions (Maryland Heights, MO)
T1 sequence (P05164 49-745): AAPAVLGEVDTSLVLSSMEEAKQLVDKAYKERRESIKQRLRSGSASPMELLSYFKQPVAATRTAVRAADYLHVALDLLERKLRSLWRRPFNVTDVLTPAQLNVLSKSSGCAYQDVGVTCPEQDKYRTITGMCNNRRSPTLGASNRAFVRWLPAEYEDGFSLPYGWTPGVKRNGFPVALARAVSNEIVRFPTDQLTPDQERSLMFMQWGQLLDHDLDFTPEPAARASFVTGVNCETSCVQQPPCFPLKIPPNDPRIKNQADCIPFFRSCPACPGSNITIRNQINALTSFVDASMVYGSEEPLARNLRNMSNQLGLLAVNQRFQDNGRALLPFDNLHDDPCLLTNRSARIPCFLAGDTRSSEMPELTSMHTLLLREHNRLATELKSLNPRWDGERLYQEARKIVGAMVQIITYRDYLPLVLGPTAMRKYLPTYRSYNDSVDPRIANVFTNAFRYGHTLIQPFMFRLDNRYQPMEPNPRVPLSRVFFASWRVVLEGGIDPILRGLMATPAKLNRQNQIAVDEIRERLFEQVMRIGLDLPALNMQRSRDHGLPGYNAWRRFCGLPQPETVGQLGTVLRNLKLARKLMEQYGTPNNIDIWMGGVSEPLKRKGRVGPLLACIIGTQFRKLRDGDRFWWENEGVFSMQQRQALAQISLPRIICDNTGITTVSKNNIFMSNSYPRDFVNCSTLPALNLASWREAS
Nature of the series: MPO heme ring oxidative degradation. The conditions noted are these: peptides 3.0 mM, H2O2, absorbance 300-550 nm. The class given is biochemical. On the procedure: In a 96 well plate, 0.025 ml of 1.7 mg/ml MPO was combined with 0.00125 ml of 0.5% H2O2 and 3 mM PIC1 or sarcosine variant peptides in a total volume of 0.125 ml PBS and left to incubate at room temperature for 2 minutes. Using a 96 well plate reader, the wells were scanned for absorbance from 300–550 nm to generate curves reflecting the iron state in the MPO heme ring, as previously reported.
We then evaluated the ability of the variants to prevent degradation of the heme ring in the MPO molecule. […] This can be evaluated via spectrometric measurements of absorption of wavelengths from 300–550 nm. Absorption measurements were made over this spectrum for all variants (Fig 3A–3H). […] The heme ring preservation for these two variants was greater than that for the parent compound, PA-dPEG24.
Fig 3 Sarcosine variant protection of MPO heme ring from oxidative degradation. Absorbance spectra for the heme ring is shown in the absence of hydrogen peroxide (MPO) in red, in the presence of hydrogen peroxide (MPO+H2O2) in black, in the presence of peptide in blue, and in the presence of hydrogen peroxide and peptide together in green. […] B-H) Peptides A2 – C9,10 are denoted in the legends. Peptides were tested at a concentration of 3.0 mM.

The test system of series [2] is purified human neutrophils. Nature of the series: NETosis assay, free DNA by PicoGreen. The class given is cell-based. The note with it: Average of n = 3; peptide 2 mM. On the procedure: NETosis assays with immune complexes were performed as previously described. Briefly, normal human serum was stimulated with ovalbumin-antiovalbumin immune complexes in GVBS^++ for 30 minutes at 37 °C. This mixture along with 0.05% H2O2 was then added to purified human neutrophils resuspended in RPMI with or without sarcosine variants (2 mM), allowing NETosis to occur. Quantitation of free DNA released from the neutrophils was performed using PicoGreen. Slides were stained with DAPI (Southern Biotech, Birmingham, AL) and the following antibodies, mouse anti-elastase (Invitrogen, Carlsbad, CA) was used with the secondary goat anti-mouse Alexa Fluor 568 (Novus Biologicals, Centennial, CO) and rabbit anti-histone H3 (Abcam, Cambridge MA) with goat anti-rabbit Alexa Fluor 488 (Novus Biologicals) to visualize formation of NETs which were imaged with fluorescence microscopy with an Olympus BX53 microscope.
In this assay purified human neutrophils are stimulated with normal human serum activated with ovalbumin-antiovalbumin immune complexes and hydrogen peroxide. Free DNA expressed from the neutrophils is then measured in a PicoGreen assay.
Fig 5 Sarcosine variant inhibition of NET formation. Fluorescence microscopy images of NET formation after neutrophil stimulation with immune complexes (IC) and hydrogen peroxide (H2O2) compared with neutrophil only control. Variant I8 inhibition of NET formation is shown in the third row. Histones are probed with anti-histone antibody (αhistone), neutrophil elastase is probed with anti-neutrophil elastase (αNE) and DNA is stained with DAPI. Representative images are shown. […] Purified human neutrophils were stimulated with 2% normal human sera pre-incubated with ovalbumin-antiovalbumin immune complexes, and 0.05% H2O2. Sarcosine peptides and PIC1 were added to the sera to a final concentration of 2 mM. Data are the means of n = 3 independent experiments + SEM.

Series [3] in a line: Total Antioxidant Capacity (TAC) assay. On the procedure:
The TAC (Total Antioxidant Capacity) Assay (Cell Biolabs, Inc, San Diego, CA) was used to measure the antioxidant capacity of the sarcosine variants based on the reduction of copper (II) to copper (I). The kit protocol was performed as recommended.
Antioxidant activity is measured in copper reducing equivalents (CRE). Peptides were tested over a range of concentrations from 0.03–0.25 mM then compared to the standard. Data are the means of n = 3 independent experiments + SEM.

A further series concerns the target T2, Myeloperoxidase (MPO) (Homo sapiens, UniProt P05164).
T2 construct: purchased Lee BioSolutions (Maryland Heights, MO)
T2 sequence (P05164 49-745): T1 sequence (P05164 49-745)
In words: MPO activity assay (TMB-based). The class given is biochemical. The note with it: range of concentrations. On the procedure: PIC1 and sarcosine variants were diluted to 25 mg/ml and then serially titrated in a 96 well plate at a volume of 0.02 ml. Myeloperoxidase (MPO) was diluted to 20 μg/ml and 0.02 ml was added to the titrated peptides. TMB (3,3′,5,5′-tetramethylbenzidine) (0.1 ml) was added to each well for 2 minutes, followed by 0.1 ml of 2.5 N H2SO4 for another 2 minutes, and then read on a 96 well plate reader (BioTek) at 450 nm.
In this assay, the variants were tested for MPO inhibition over a range of concentrations (Fig 2A). Strong MPO inhibition was found for all variants with the exception of the no-cysteine variant (C9,10).

This note sets out measurements from paper PMC6938345, “Inhibition of complement activation, myeloperoxidase, NET formation and oxidant activity by PIC1 peptide variants” (PLoS ONE, 2019).

As for `CC[C@H](C)[C@H](N)C(=O)N[C@@H](C)C(=O)N[C@@H](CC(C)C)C(=O)N[C@H](C(=O)N[C@@H](CC(C)C)C(=O)N[C@@H](CCC(=O)O)C(=O)N1CCC[C@H]1C(=O)N(C)CC(=O)N[C@@H](CS)C(=O)N[C@@H](CS)C(=O)N[C@@H](CCC(N)=O)C(=O)N[C@@H](CCC(=O)O)C(=O)N[C@@H](CCCNC(=N)N)C(=O)N[C@@H](C)C(=O)N[C@@H](C)C(=O)O)[C@@H](C)CC` [I8], the “solubility in water (in words)” value in series [1] was “soluble in water”. Further, on MPO heme ring, the “protection of MPO heme ring from degradation (in words)” value is given as “near perfect preservation”. Besides, the “PICO green - NETs, free DNA release” value in series [2] is 43. Besides, in series [3] (Avg of n = 3), the “TAC assay, antioxidant activity” value is listed as 1239.37 copper reducing equivalents (CRE). The “antioxidant capacity (in words)” value in series [3] (TAC assay) was “approaching that of PA-dPEG24”. The “MPO inhibition (in words)” value at Myeloperoxidase (MPO) is listed as “greatest potency”.
